Measurements from ChEMBL document CHEMBL1201862, “PubChem BioAssay data set” (2004).
Active and inactive are the calls of the source.

How the values were obtained:
Assay type in all cases: functional
[1] = molecular target: Peroxisome proliferator-activated receptor gamma/Nuclear receptor coactivator 2 (Homo sapiens, UniProt P37231);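 further: agonist potency for raising coactivator recruitment to the receptor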
[2] = molecular target: T1, Calpain-2 catalytic subunit (Sus scrofa, UniProt P43367); experiment: pig calpain II inhibitor potency, dose response, biochemical, fluorogenic peptide substrate (AID 1420)
T1 sequence (P43367 whole entry): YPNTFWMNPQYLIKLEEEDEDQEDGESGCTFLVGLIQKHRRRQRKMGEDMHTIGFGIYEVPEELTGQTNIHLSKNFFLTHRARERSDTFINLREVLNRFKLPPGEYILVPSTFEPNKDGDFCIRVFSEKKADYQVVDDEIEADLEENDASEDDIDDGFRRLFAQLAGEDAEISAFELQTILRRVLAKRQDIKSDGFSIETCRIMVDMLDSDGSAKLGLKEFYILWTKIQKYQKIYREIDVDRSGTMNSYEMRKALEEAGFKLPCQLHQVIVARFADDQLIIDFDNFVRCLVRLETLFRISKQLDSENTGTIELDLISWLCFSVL

[3] = molecular target: Peroxisome proliferator-activated receptor gamma/Nuclear receptor coactivator 1 (Homo sapiens, UniProt P37231);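 further: agonist potency as compounds enhance coactivator SRC-1 recruitment to PPARgamma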
[4] = molecular target: Eukaryotic translation initiation factor 4E (Mus musculus, UniProt P63073); experiment: eIF4E–eIF4G protein interaction inhibitors, dose response, biochemical, TR-FRET (AID 855);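 further: potency for disrupting eIF4E binding to eIF4GI seen as loss of FRET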
[5] = molecular target: Peroxisome proliferator-activated receptor gamma/Nuclear receptor coactivator 3 (Homo sapiens, UniProt P37231);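 further: agonist potency for raising coactivator recruitment to the receptor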
[6] = cytotoxicity in NIH/3T3 mouse fibroblasts, dose response, cytotoxicity control, cell-based, mouse embryonic fibroblasts, dry powder, set 2 (AID 493247); conditions: Fibroblast
Trypanosoma cruzi = experiment: growth inhibition of intracellular Trypanosoma cruzi, dose response, cell-based, plate reader, dry powder, set 3 (AID 493197)

Chain of Eukaryotic translation initiation factor 4E (P63073 whole entry): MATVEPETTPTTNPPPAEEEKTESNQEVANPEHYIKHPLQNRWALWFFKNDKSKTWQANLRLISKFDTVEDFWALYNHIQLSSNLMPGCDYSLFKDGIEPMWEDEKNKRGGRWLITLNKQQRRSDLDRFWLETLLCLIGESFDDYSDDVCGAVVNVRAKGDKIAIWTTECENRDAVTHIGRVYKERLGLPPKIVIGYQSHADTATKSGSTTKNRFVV
Chain of Peroxisome proliferator-activated receptor gamma/Nuclear receptor coactivator 2 (P37231 whole entry): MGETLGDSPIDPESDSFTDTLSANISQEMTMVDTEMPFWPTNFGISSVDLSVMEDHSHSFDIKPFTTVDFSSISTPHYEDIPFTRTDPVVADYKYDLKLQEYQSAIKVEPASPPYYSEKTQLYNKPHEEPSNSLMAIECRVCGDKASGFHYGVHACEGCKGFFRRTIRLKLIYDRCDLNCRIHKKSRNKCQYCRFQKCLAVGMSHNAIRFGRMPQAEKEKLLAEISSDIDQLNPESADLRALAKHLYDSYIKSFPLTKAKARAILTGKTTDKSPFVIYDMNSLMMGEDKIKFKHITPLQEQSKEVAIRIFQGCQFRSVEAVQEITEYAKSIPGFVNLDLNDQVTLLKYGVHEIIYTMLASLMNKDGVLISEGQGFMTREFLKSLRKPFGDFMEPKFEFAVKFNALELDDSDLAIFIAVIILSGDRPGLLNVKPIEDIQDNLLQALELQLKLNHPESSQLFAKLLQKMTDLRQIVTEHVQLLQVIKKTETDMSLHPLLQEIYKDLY
Chain of Peroxisome proliferator-activated receptor gamma/Nuclear receptor coactivator 2 (Q15596 whole entry, further chain): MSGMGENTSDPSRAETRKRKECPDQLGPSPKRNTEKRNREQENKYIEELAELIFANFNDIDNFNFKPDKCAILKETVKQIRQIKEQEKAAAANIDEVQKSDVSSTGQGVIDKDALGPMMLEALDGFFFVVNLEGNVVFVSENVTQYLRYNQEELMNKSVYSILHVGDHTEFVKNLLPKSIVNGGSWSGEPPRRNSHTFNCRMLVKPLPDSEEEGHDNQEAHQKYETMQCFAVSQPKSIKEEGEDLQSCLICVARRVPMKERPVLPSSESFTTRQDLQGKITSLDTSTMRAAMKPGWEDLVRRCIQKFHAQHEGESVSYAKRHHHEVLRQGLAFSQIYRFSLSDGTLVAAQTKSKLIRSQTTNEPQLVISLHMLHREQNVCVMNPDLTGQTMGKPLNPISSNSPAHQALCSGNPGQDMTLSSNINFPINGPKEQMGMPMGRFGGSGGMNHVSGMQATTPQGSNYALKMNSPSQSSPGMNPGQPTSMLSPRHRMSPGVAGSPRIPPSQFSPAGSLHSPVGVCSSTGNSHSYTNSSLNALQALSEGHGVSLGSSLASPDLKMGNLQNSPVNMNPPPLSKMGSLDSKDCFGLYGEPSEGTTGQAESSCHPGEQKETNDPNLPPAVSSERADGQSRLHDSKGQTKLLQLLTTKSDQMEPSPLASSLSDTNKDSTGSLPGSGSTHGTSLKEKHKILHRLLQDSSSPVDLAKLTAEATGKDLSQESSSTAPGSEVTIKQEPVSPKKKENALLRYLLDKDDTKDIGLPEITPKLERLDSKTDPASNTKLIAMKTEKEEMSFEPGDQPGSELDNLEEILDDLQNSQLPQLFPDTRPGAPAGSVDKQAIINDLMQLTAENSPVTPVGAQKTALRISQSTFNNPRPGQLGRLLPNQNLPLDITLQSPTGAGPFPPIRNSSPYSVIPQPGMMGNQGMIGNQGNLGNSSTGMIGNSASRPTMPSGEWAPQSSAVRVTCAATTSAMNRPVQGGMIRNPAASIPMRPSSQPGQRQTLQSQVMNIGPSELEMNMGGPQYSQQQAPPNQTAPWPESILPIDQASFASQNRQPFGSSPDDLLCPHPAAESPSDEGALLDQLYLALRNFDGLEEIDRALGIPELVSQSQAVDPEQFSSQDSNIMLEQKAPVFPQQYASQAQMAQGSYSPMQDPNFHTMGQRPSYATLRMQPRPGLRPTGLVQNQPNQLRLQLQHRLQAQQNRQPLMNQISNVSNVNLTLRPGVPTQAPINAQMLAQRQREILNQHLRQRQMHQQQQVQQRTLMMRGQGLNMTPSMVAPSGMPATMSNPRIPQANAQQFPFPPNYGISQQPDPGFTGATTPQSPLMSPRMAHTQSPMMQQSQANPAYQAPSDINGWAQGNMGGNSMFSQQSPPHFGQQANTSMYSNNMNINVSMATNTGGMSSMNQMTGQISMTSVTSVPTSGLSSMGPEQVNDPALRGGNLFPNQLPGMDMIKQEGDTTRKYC
Chain of Peroxisome proliferator-activated receptor gamma/Nuclear receptor coactivator 3 (P37231 whole entry): as the sequence (P37231 whole entry) above
Chain of Peroxisome proliferator-activated receptor gamma/Nuclear receptor coactivator 3 (Q9Y6Q9 whole entry, further chain): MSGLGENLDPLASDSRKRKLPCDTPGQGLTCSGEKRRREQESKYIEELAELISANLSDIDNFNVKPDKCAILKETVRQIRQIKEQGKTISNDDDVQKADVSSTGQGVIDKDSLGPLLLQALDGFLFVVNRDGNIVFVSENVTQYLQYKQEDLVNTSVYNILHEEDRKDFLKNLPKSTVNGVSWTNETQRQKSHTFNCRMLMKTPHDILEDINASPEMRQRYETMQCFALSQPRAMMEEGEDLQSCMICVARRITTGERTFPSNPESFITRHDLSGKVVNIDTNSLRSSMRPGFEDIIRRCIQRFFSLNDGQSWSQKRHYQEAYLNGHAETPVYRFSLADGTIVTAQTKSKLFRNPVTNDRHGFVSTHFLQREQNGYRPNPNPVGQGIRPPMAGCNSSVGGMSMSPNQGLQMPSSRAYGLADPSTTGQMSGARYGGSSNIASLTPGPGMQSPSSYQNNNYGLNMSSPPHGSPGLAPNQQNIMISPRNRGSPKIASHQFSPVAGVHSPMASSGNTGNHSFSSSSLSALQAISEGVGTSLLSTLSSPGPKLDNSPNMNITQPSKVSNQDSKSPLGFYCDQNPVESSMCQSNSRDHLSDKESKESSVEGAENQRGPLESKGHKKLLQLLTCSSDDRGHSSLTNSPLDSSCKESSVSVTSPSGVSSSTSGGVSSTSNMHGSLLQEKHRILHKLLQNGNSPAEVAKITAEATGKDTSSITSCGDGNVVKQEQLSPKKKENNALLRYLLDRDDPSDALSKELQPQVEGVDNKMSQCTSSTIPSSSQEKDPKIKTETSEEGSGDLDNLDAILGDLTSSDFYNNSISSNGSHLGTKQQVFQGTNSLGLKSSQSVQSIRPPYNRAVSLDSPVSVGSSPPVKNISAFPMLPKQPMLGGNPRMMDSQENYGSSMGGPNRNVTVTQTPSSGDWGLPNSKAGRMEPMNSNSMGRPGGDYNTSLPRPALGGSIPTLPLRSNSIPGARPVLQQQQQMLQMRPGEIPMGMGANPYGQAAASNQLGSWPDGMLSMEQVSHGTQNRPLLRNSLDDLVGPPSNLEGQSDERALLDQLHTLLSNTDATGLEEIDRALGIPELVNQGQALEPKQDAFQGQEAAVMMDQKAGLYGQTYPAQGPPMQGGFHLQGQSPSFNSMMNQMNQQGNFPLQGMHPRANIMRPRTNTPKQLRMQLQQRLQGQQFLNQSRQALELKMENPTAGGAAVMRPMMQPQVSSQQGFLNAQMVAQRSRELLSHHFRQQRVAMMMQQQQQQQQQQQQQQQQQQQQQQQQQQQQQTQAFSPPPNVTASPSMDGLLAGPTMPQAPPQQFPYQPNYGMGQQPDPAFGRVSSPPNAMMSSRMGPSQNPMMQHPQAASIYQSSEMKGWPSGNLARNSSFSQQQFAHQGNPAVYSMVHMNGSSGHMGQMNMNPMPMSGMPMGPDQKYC

EC50 [1] | IC50 [2] | EC50 [3] | IC50 [4] | EC50 [5] | SMILES | AC50 [6] | AC50 (Trypanosoma cruzi)
> 79.4 µM (not active) | 9.36 µM (not active) | > 79.4 µM (not active) | > 64 µM (inactive) | > 79.4 µM (not active) | NS(=O)(=O)c1ccc(NC(=S)NCc2ccc(Cl)cc2)cc1 | – | –
– | – | – | – | – | O=C(CCC(=O)Nc1ccccc1)N/N=C/c1ccc([N+](=O)[O-])o1 | 5.35 µM (active) | 0.125 µM (active)
